Reference: paper PMC6151726, “Design and Antiproliferative Evaluation of Novel Sulfanilamide Derivatives as Potential Tubulin Polymerization Inhibitors” (Molecules : A Journal of Synthetic Chemistry and Natural …, 2017)
Converted amounts (≈) assume the structure as drawn. Where two headings read alike, the source gives them in different places.

Key:
[1] = tested on: PC-3 (human prostate cancer cell line); test: MTT antiproliferative assay, PC-3; type: cell-based; details: exposure for 48 h, means ± SDs of three independent experiments
Protocol: (§1) All synthesized sulfonamide-1,2,3-triazole hybrids were evaluated for their anticancer activity against three cancer cell lines: MGC-803 (human gastric cancer cell line), MCF-7 (human breast cancer cell line), and PC-3 (human prostate cancer cell line) using a MTT (4,5-dimethyl-2-thiazolyl)-2,5-diphenyl-2-H-tetrazolium bromide) assay. The well-known tubulin polymerization inhibitor CA-4P was used as a control. In [24], 5-fluorouracil (5-Fu) was selected as the control in the antiproliferative evaluation assay of 1,2,3-triazole derivatives. Therefore, 5-Fu was also used as the reference drug in this MTT assay.
(§2) MGC-803 cells (human gastric cancer), MCF-7 (human breast cancer), PC-3 (human prostate cancer) and GES-1 (human gastric epithelial cell) were cultured in RPMI 1640 medium with 10% FBS and 100 U/mL penicillin and 0.1 mg/mL streptomycin in the 37 °C in an atmosphere containing 5% CO2. All cell lines were purchased from the China Center for Type Culture Collection (CCTCC, Shanghai, China). For pharmacological investigations, 10 mM stock solutions of the tested compounds were prepared with dimethyl sulfoxide (DMSO). […] The MTT assay was prepared according to the previous method.

[2] = tested on: MGC-803 (human gastric cancer cell line); test: MTT antiproliferative assay, MGC-803; type: cell-based; details: exposure for 48 h, means ± SDs of three independent experiments
Protocol: as §1, §2

[3] = tested on: MCF-7 (human breast cancer cell line); test: MTT antiproliferative assay, MCF-7; type: cell-based; details: MCF7, exposure for 48 h, means ± SDs of three independent experiments
Protocol: as §1, §2

murine leukemia = tested on: murine leukemia; parameters: method as in PMID 26501246; details: read-out: IC50 against the proliferation of murine leukemia; cited from earlier work
tubulin [4] = test: In vitro tubulin polymerization inhibition assay; type: biochemical; details: 5.6 mg/mL tubulin in PEM buffer, read-out: inhibitory concentration that reduced the polymerized tubulin by 50% (IC50)
Protocol: The inhibitory concentrations that reduced the polymerized tubulin by 50% of CA-4P was 2.40 μM [25]. To investigate whether the synthesized 1,2,3-triazole-sulfonamide hybrids target the tubulin-microtubule system, the in vitro tubulin polymerization inhibition activity of compound 11f was evaluated because of its best antiproliferative activity results among all the tested compounds in the initial cytotoxicity screening. When tubulin was incubated with the tested 1,2,3-triazole-sulfonamide 11f at the indicated concentrations, an increased fluorescence intensity was obvious.
Tubulin polymerization in vitro was assyed with 100 μL samples and monitored by absorbance at 350 nm (Filter A00019x) in 96-well plates with an Appliskan plate reader (Thermo Fisher Scientific, Waltham, MA, USA). An amount of 5.6 mg/mL tubulin was resuspended in PEM buffer (80 mM PIPES (pH 6.9), 1 mM EGTA, 0.5 mM MgCl2, […], 10.2% (v/v) glycerol) and then was preincubated with compound 11f or vehicle DMSO on ice. Data were exported using the Thermo Scientific SkanIt software of the Appliskan (version 2.3) and Excel software was used to generate plots. For convenience, data were normalized to the minimum absorbance value of the initial stable plateau. This tubulin polymerization inhibition assay was measured according to the method originally.

[5] = tested on: MGC-803, MCF-7 and PC-3 cells; test: MTT antiproliferative assay, three cancer cell lines together; type: cell-based; details: Homo sapiens; range over MGC-803, MCF-7 and PC-3; read-out: IC50 values ranging over three cell lines
Protocol: as §1, §2

[6] = MTT assay on normal cells, GES-1; type: cell-based; details: GES-1 cells (normal gastric epithelial cell line), normal human gastric epithelial cell line, read-out: inhibitory effect / cytotoxicity against GES-1
Protocol: Compound 11f was further examined for possible inhibitory effects against GES-1 (normal human gastric epithelial cell line).
as §2

PC3 cells = tested on: PC3 cells; parameters: method as in PMID 27423028; details: read-out: IC50 against PC3 cells; cited from earlier work
tubulin [7] = tested on: tubulin; parameters: method as in PMID 24923521; details: read-out: IC50 inhibition of tubulin assembly; cited from earlier work
4T1 mammary tumor cells = details: 45 mg/kg; cited from earlier work
A2780AD cell line = tested on: A2780AD cell line; parameters: method as in PMID 28640209; details: read-out: IC50 antiproliferative activity against A2780AD cell line; cited from earlier work
CDK1 = tested on: CDK1; parameters: method as in PMID 28005359; details: cited from earlier work
CDK2 = tested on: CDK2; parameters: method as in PMID 28005359; details: cited from earlier work
[8] = tested on: HCT116 human colon carcinoma; parameters: method as in PMID 10508428; details: cell proliferation assay; cited from earlier work

Compound | IC50 ([1]; Homo sapiens, 48 h) | IC50 [2] | melting point | IC50 [3] | further results
Cc1cc(C)c(S(=O)(=O)NCc2cn(Cc3cccc(Oc4ccccc4)c3)nn2)c(C)c1 [11h, 2,4,6-Trimethyl-N-((1-(3-phenoxybenzyl)-1H-1,2,3-triazol-4-yl)methyl)benzenesulfonamide] | 24.7 ± 3 µM | 18.4 ± 0.7 µM | 111 to 113 °C | 24.6 ± 1.6 µM | 
Cc1ccc(S(=O)(=O)NCc2cn(Cc3cccc(C#N)c3)nn2)cc1 [11j, N-((1-(3-Cyanobenzyl)-1H-1,2,3-triazol-4-yl)methyl)-4-methylbenzenesulfonamide] | > 100 µM | 41.3 ± 2.3 µM | 145 to 147 °C | > 100 µM | 
CC(C)(C)c1ccc(S(=O)(=O)NCc2cn(Cc3cccc(Oc4ccccc4)c3)nn2)cc1 [11g, 4-(Tert-butyl)-N-((1-(3-phenoxybenzyl)-1H-1,2,3-triazol-4-yl)methyl)benzenesulfonamide] | 7.1 ± 0.5 µM | > 100 µM | 137 to 139 °C | 54.9 ± 1.7 µM | 
O=S(=O)(NCc1cn(Cc2cccc(Oc3ccccc3)c2)nn1)c1cccs1 [11a, N-((1-(3-Phenoxybenzyl)-1H-1,2,3-triazol-4-yl)methyl)thiophene-2-sulfonamide] | 24.6 ± 0.9 µM | 17 ± 1.8 µM | 104 to 106 °C | 78.5 ± 2.2 µM | 
C#CCNS(=O)(=O)c1ccc(C)cc1 [9f, 4-Methyl-N-(prop-2-yn-1-yl)benzenesulfonamide] | > 100 µM | > 100 µM |  | > 100 µM | 
O=S(=O)(NCc1cn(Cc2cccc(Oc3ccccc3)c2)nn1)c1ccccc1 [11e, N-((1-(3-Phenoxybenzyl)-1H-1,2,3-triazol-4-yl)methyl)benzenesulfonamide] | 6.4 ± 1.2 µM | 21.7 ± 0.1 µM | 127 to 130 °C | 39.6 ± 5 µM | 
Nc1nc(Cl)c2ncn(Cc3cn(C[C@H](OCc4ccccc4)[C@@H](O)P(=O)(OCc4ccccc4)OCc4ccccc4)nn3)c2n1 [compound 5] |  |  |  |  | IC50 (murine leukemia): 21 µM
Cc1ccc(S(=O)(=O)NCc2cn(Cc3cccc(Oc4ccccc4)c3)nn2)cc1 [11f, 4-Methyl-N-((1-(3-phenoxybenzyl)-1H-1,2,3-triazol-4-yl)methyl)benzenesulfonamide] | 4.08 µM | 13.7 ± 2.9 µM | 118 to 121 °C | 15.7 ± 0.2 µM | IC50 [1]: 4.1 ± 1.4 µM; IC50 (tubulin [4]): 2.41 µM; IC50 [5]: 4.1 to 15.7 µM; IC50 [6]: > 64 µM
O=S1(=O)CCCN(S(=O)(=O)c2ccc(-c3cnc(C4CC4)o3)cc2)c2ccccc21 [BA-3P] |  |  |  |  | IC50 (PC3 cells): 5.88 µM
C#CCNS(=O)(=O)c1cccs1 [9a, N-(Prop-2-yn-1-yl)thiophene-2-sulfonamide] | > 100 µM | > 100 µM |  | > 100 µM | 
C#CCNS(=O)(=O)c1ccc2oc(=O)ccc2c1 [9d, 2-Oxo-N-(prop-2-yn-1-yl)-2H-chromene-6-sulfonamide] | > 100 µM | > 100 µM | 193 to 196 °C | > 100 µM | 
Cc1ccc(S(=O)(=O)NCc2cn(Cc3cccc(C)c3)nn2)cc1 [11k, 4-Methyl-N-((1-(3-methylbenzyl)-1H-1,2,3-triazol-4-yl)methyl)benzenesulfonamide] | > 100 µM | 75.8 ± 0.6 µM | 145 to 148 °C | > 100 µM | 
COc1cc2c(cc1O)CC[C@@H]1[C@@H]2CC[C@@]2(C)[C@H]1CC[C@@]2(O)c1cn(-c2ccc(OC(F)(F)F)cc2)nn1 [compound 7] |  |  |  |  | IC50 (tubulin [7]): 5.9 µM
O=S(=O)(NCc1cn(Cc2cccc(Oc3ccccc3)c2)nn1)c1ccc(Cl)s1 [11b, 5-Chloro-N-((1-(3-phenoxybenzyl)-1H-1,2,3-triazol-4-yl)methyl)thiophene-2-sulfonamide] | 19.8 ± 0.6 µM | 15.3 ± 0.8 µM | 110 to 111 °C | 49.9 ± 1.2 µM | 
O=S(=O)(NCc1cn(Cc2cccc(Oc3ccccc3)c2)nn1)c1ccccc1Cl [11i, 2-Chloro-N-((1-(3-phenoxybenzyl)-1H-1,2,3-triazol-4-yl)methyl) benzenesulfonamide] | 22.7 ± 0.5 µM | 15.3 ± 0.5 µM | 97 to 99 °C | 77.5 ± 0.7 µM | 
NS(=O)(=O)c1ccc(NC(=O)Nc2cccc([N+](=O)[O-])c2)cc1 [compound 1] |  |  |  |  | formation of metastases by 4T1 mammary tumor cells (4T1 mammary tumor cells): significantly inhibited the formation of metastases
Quinolin-6-yloxyacetamide |  |  |  |  | IC50 (A2780AD cell line): 0.262 µM
O=c1ccc2cc(S(=O)(=O)NCc3cn(Cc4cccc(Oc5ccccc5)c4)nn3)ccc2o1 [11d, 2-Oxo-N-((1-(3-phenoxybenzyl)-1H-1,2,3-triazol-4-yl)methyl)-2H-chromene-6-sulfonamide] | 34.1 ± 0.3 µM | 88.8 ± 0.5 µM | 144 to 146 °C | 36.4 ± 2 µM | IC50 [5]: 34.1 to 88.8 µM
COc1cccc(Cn2cc(CNS(=O)(=O)c3ccc(C)cc3)nn2)c1 [11l, N-((1-(3-Methoxybenzyl)-1H-1,2,3-triazol-4-yl)methyl)-4-methylbenzenesulfonamide] | > 100 µM | 77.2 ± 7.8 µM | 112 to 114 °C | > 100 µM | 
O=c1[nH]cc(F)c(=O)[nH]1 [5-Fu, 5-Fluorouracil, reference compound] | 13.9 ± 1.5 µM | 15.6 ± 0.4 µM |  | 21.2 ± 3.6 µM | 
NS(=O)(=O)c1ccc(Nc2nc(-c3cccc(-c4ccccc4)c3)c3nc[nH]c3n2)cc1 [compound 3] |  |  |  |  | fold less active toward CDK1 than CDK2 (CDK1; CDK1 vs CDK2): ~ 2000 fold; IC50 (CDK1): 86 µM; IC50 (CDK2): 0.044 µM
NS(=O)(=O)c1ccc(S(=O)(=O)Nc2cccc3c(Cl)c[nH]c23)cc1 [compound 4, N-(3-chloro-7-indolyl)-1,4-benzenedisulfonamide] |  |  |  |  | IC50 against HCT116 human colon carcinoma [8]: 0.11 µg/mL (≈ 0.285 µM)
O=S(=O)(NCc1cn(Cc2cccc(Oc3ccccc3)c2)nn1)c1ccc(Br)s1 [11c, 5-Bromo-N-((1-(3-phenoxybenzyl)-1H-1,2,3-triazol-4-yl)methyl)thiophene-2-sulfonamide] | 49.4 ± 1 µM | 31 ± 2.2 µM | 111 to 112 °C | 34.7 ± 2.6 µM | 
